In US20240066089A1, “ARTOCARPUS HETEROPHYLLUS COMPOSITION AND METHOD OF PROMOTING URINARY TRACT HEALTH” (priority 2022, published 2024):
Converted amounts (≈) assume the structure as drawn.

Assays:
[1] = test system: testosterone induced BPH model rats; assay: Antioxidant activity in prostate tissue of BPH model rats (SOD, catalase, GSH, glutathione reductase); type: in vivo, Wistar rats; conditions: Finasteride 1 mg/kg, in comparison with BPH group (p<0.001)
[2] = test system: testosterone induced BPH model rats; assay: Prostate growth in testosterone-induced BPH model rats; type: in vivo, Wistar rats; conditions: 28 days; for Growth inhibition (%): prostate growth, Fina group, 1 mg/kg, mean ± SD n = 6
[3] = test system: testosterone induced BPH model rats; assay: Histopathological examination of prostate tissue of BPH model rats; type: in vivo, Wistar rats; conditions: H&E stained sections
5-alpha-reductase = assay: In vitro 5-alpha-reductase assay (NADPH absorbance at 340 nm, liver S9 fraction); type: biochemical; conditions: 20 μg liver S9 fraction, 6 minutes at 37° C., Finasteride 20-70 ng/mL
Description: In vitro 5-alpha-reductase assay was performed according to Sun et al. (1998) with some modifications. NADPH has characteristic absorbance at 340 nm, and the absorbance spectrum may be used to measure the decline in NADPH concentration as a measure of enzyme activity. Briefly, the reaction mixture contained 40 mM phosphate buffer pH 7.0, 93 μM NADPH, 2.265 μM testosterone and 20 μg liver S9 fraction with or without different concentrations of the extract (2-6 μg/mL) or reference compound Finasteride (20-70 ng/mL), incubated for 6 minutes at 37° C. The absorbance was read at 340 nm in UV-visible spectrophotometer. IC50 values were determined for the extract and Finasteride.

SMILES: CC(C)(C)NC(=O)[C@H]1CC[C@H]2[C@@H]3CC[C@H]4NC(=O)C=C[C@]4(C)[C@H]3CC[C@]12C [Finasteride]
- SOD activity [1]: significantly increased
- prostate weights ([2]; in comparison with BPH control (p<0.001)): reduced significantly
- Growth inhibition (%) [2]: 90.22%
- Growth inhibition (%) ([2]; listed as Fina): 90.22 ± 10.85%
- pathological changes (hyperplastic patterns) in prostate tissue [3]: not evident
- IC50 value, 5-alpha-reductase activity (5-alpha-reductase): 0.0632 mg/L (≈ 0.17 µM)
